Assay results published in patent US20230077362A1 (CORTEVA AGRISCIENCE LLC, priority 2019, published 2023).

Assays:
[1] = test system: Beet Armyworm (Spodoptera exigua) ("BAW"), second instar larvae; test: Bioassay on beet armyworm (BAW), 128-well diet tray assay; type: in vivo; conditions: Spodoptera exigua, read-out: BAW (Biological Results, rating)
How it was run: (§1)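 Second-instar larvae on diet in 128-well trays, covered and held at 25° C, 14:10 light-dark, for five to seven days. Percent mortality scored per well and averaged over eight wells; activity reported as a rating category.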

[2] = test system: Cabbage Looper (Trichoplusia ni) ("CL"), second instar larvae; test: Bioassay on cabbage looper (CL), 128-well diet tray assay; type: in vivo; conditions: Trichoplusia ni, read-out: CL (Biological Results, rating)
How it was run: as §1

| Compound | pest or weed control at 50 µg/cm2 [1] | pest or weed control at 50 µg/cm2 [2] |
| --- | --- | --- |
| CN(C)c1ccc(C(F)(F)F)c(N2C(=O)CS/C2=N\C(=O)Nc2ccc(-c3ncn(-c4ccc(OC(F)(F)F)cn4)n3)cc2F)c1 [Compound J262, (Z)-1-(3-(5-(Dimethylamino)-2-(trifluoromethyl)phenyl)-4-oxothiazolidin-2-ylidene)-3-(2-fluoro-4-(1-(5-(trifluoromethoxy)pyridin-2-yl)-1H-1,2,4-triazol-3-yl)phenyl)urea] | 50 to 100% | 50 to 100% |
| CN(C)c1ccc(OCC(F)(F)F)c(N2C(=O)CS/C2=N\C(=O)Nc2ccc(-c3ncn(-c4ccc(OC(F)(F)F)cn4)n3)cc2F)c1 [Compound J263, (Z)-1-(3-(5-(Dimethylamino)-2-(2,2,2-trifluoroethoxy)phenyl)-4-oxothiazolidin-2-ylidene)-3-(2-fluoro-4-(1-(5-(trifluoromethoxy)pyridin-2-yl)-1H-1,2,4-triazol-3-yl)phenyl)urea] | 50 to 100% | 50 to 100% |
| Cc1ccc(OCCC(F)(F)F)c(N2C(=O)CS/C2=N\C(=O)Nc2ccc(-c3ncn(-c4ccc(OC(F)(F)F)cn4)n3)cc2C#N)c1 [Compound J264, (Z)-1-(2-Cyano-4-(1-(5-(trifluoromethoxy)pyridin-2-yl)-1H-1,2,4-triazol-3-yl)phenyl)-3-(3-(5-methyl-2-(3,3,3-trifluoropropoxy)phenyl)-4-oxothiazolidin-2-ylidene)urea] | 50 to 100% | 50 to 100% |
| Cc1ccc(COCC(F)(F)F)c(N2C(=O)CS/C2=N\C(=O)Nc2ccc(-c3ncn(-c4ccc(OC(F)(F)F)cn4)n3)cc2C#N)c1 [Compound J265, (Z)-1-(2-Cyano-4-(1-(5-(trifluoromethoxy)pyridin-2-yl)-1H-1,2,4-triazol-3-yl)phenyl)-3-(3-(5-methyl-2-((2,2,2-trifluoroethoxy)methyl)phenyl)-4-oxothiazolidin-2-ylidene)urea] | 50 to 100% | 50 to 100% |
| CC(C)c1ccc(N(C)C)cc1N1C(=O)CS/C1=N\C(=O)Nc1ccc(-c2ncn(-c3ccc(OC(F)(F)F)cn3)n2)cc1C#N [Compound J266, (Z)-1-(2-Cyano-4-(1-(5-(trifluoromethoxy)pyridin-2-yl)-1H-1,2,4-triazol-3-yl)phenyl)-3-(3-(5-(dimethylamino)-2-isopropylphenyl)-4-oxothiazolidin-2-ylidene)urea] | 50 to 100% | 50 to 100% |
| COC(C)c1ccc(C)cc1N1C(=O)CS/C1=N\C(=O)Nc1ccc(-c2ncn(-c3ccc(OC(F)(F)F)cn3)n2)cc1C#N (stereo not drawn) [Compound J267, (Z)-1-(2-Cyano-4-(1-(5-(trifluoromethoxy)pyridin-2-yl)-1H-1,2,4-triazol-3-yl)phenyl)-3-(3-(2-(1-methoxyethyl)-5-methylphenyl)-4-oxothiazolidin-2-ylidene)urea] | 50 to 100% | 50 to 100% |
| COc1ccc(C(C)C)c(N2C(=O)CS/C2=N\C(=O)Nc2ccc(-c3ncn(-c4ccc(OC(F)(F)F)cn4)n3)cc2C#N)c1 [Compound J268, (Z)-1-(2-Cyano-4-(1-(5-(trifluoromethoxy)pyridin-2-yl)-1H-1,2,4-triazol-3-yl)phenyl)-3-(3-(2-isopropyl-5-methoxyphenyl)-4-oxothiazolidin-2-ylidene)urea] | 50 to 100% | 50 to 100% |
| CCCc1ccc(N(C)C)cc1N1C(=O)CS/C1=N\C(=O)Nc1ccc(-c2ncn(-c3ccc(OC(F)(F)F)cn3)n2)cc1C#N [Compound J269, (Z)-1-(2-Cyano-4-(1-(5-(trifluoromethoxy)pyridin-2-yl)-1H-1,2,4-triazol-3-yl)phenyl)-3-(3-(5-(dimethylamino)-2-propylphenyl)-4-oxothiazolidin-2-ylidene)urea] | 50 to 100% | 50 to 100% |
| Cc1ccc(C(C)C)c(N2C(=O)CS/C2=N\C(=O)Nc2ccc(-c3ncn(-c4ccc(OC(F)(F)F)cn4)n3)cc2F)c1 [Compound J270, (Z)-1-(2-Fluoro-4-(1-(5-(trifluoromethoxy)pyridin-2-yl)-1H-1,2,4-triazol-3-yl)phenyl)-3-(3-(2-isopropyl-5-methylphenyl)-4-oxothiazolidin-2-ylidene)urea] | 50 to 100% | 50 to 100% |
| Cc1ccc(C(F)(F)F)c(N2C(=O)CS/C2=N\C(=O)Nc2ccc(-c3ncn(-c4ccc(OC(F)(F)F)cn4)n3)cc2F)c1 [Compound J271, (Z)-1-(2-Fluoro-4-(1-(5-(trifluoromethoxy)pyridin-2-yl)-1H-1,2,4-triazol-3-yl)phenyl)-3-(3-(5-methyl-2-(trifluoromethyl)phenyl)-4-oxothiazolidin-2-ylidene)urea] | 50 to 100% | 50 to 100% |
| CCCc1ccc(C)cc1N1C(=O)CS/C1=N\C(=O)Nc1ccc(-c2ncn(-c3ccc(OC(F)(F)F)cn3)n2)cc1F [Compound J272, (Z)-1-(2-Fluoro-4-(1-(5-(trifluoromethoxy)pyridin-2-yl)-1H-1,2,4-triazol-3-yl)phenyl)-3-(3-(5-methyl-2-propylphenyl)-4-oxothiazolidin-2-ylidene)urea] | 50 to 100% | 50 to 100% |
| Cc1ccc(OCCC(F)(F)F)c(N2C(=O)CS/C2=N\C(=O)Nc2ccc(-c3ncn(-c4ccc(OC(F)(F)F)cn4)n3)cc2C(F)(F)F)c1 [Compound J273, (Z)-1-(3-(5-Methyl-2-(3,3,3-trifluoropropoxy)phenyl)-4-oxothiazolidin-2-ylidene)-3-(4-(1-(5-(trifluoromethoxy)pyridin-2-yl)-1H-1,2,4-triazol-3-yl)-2-(trifluoromethyl)phenyl)urea] | 50 to 100% | 50 to 100% |
| Cc1ccc(COCC(F)(F)F)c(N2C(=O)CS/C2=N\C(=O)Nc2ccc(-c3ncn(-c4ccc(OC(F)(F)F)cn4)n3)cc2C(F)(F)F)c1 [Compound J274, (Z)-1-(3-(5-Methyl-2-((2,2,2-trifluoroethoxy)methyl)phenyl)-4-oxothiazolidin-2-ylidene)-3-(4-(1-(5-(trifluoromethoxy)pyridin-2-yl)-1H-1,2,4-triazol-3-yl)-2-(trifluoromethyl)phenyl)urea] | 50 to 100% | 50 to 100% |
| CC(C)c1ccc(N(C)C)cc1N1C(=O)CS/C1=N\C(=O)Nc1ccc(-c2ncn(-c3ccc(OC(F)(F)F)cn3)n2)cc1C(F)(F)F [Compound J275, (Z)-1-(3-(5-(Dimethylamino)-2-isopropylphenyl)-4-oxothiazolidin-2-ylidene)-3-(4-(1-(5-(trifluoromethoxy)pyridin-2-yl)-1H-1,2,4-triazol-3-yl)-2-(trifluoromethyl)phenyl)urea] | 50 to 100% | 50 to 100% |
| COC(C)c1ccc(C)cc1N1C(=O)CS/C1=N\C(=O)Nc1ccc(-c2ncn(-c3ccc(OC(F)(F)F)cn3)n2)cc1C(F)(F)F (stereo not drawn) [Compound J276, (Z)-1-(3-(2-(1-Methoxyethyl)-5-methylphenyl)-4-oxothiazolidin-2-ylidene)-3-(4-(1-(5-(trifluoromethoxy)pyridin-2-yl)-1H-1,2,4-triazol-3-yl)-2-(trifluoromethyl)phenyl)urea] | 50 to 100% | 50 to 100% |
| COc1ccc(C(C)C)c(N2C(=O)CS/C2=N\C(=O)Nc2ccc(-c3ncn(-c4ccc(OC(F)(F)F)cn4)n3)cc2C(F)(F)F)c1 [Compound J277, (Z)-1-(3-(2-Isopropyl-5-methoxyphenyl)-4-oxothiazolidin-2-ylidene)-3-(4-(1-(5-(trifluoromethoxy)pyridin-2-yl)-1H-1,2,4-triazol-3-yl)-2-(trifluoromethyl)phenyl)urea] | 50 to 100% | 50 to 100% |
| CCCc1ccc(N(C)C)cc1N1C(=O)CS/C1=N\C(=O)Nc1ccc(-c2ncn(-c3ccc(OC(F)(F)F)cn3)n2)cc1C(F)(F)F [Compound J278, (Z)-1-(3-(5-(Dimethylamino)-2-propylphenyl)-4-oxothiazolidin-2-ylidene)-3-(4-(1-(5-(trifluoromethoxy)pyridin-2-yl)-1H-1,2,4-triazol-3-yl)-2-(trifluoromethyl)phenyl)urea] | 50 to 100% | 50 to 100% |
| Cc1ccc(C(C)C)c(N2C(=O)CS/C2=N\C(=O)Nc2ccc(-c3ncn(-c4ccc(C(F)(F)F)cn4)n3)cc2F)c1 [Compound J279, (Z)-1-(2-Fluoro-4-(1-(5-(trifluoromethyl)pyridin-2-yl)-1H-1,2,4-triazol-3-yl)phenyl)-3-(3-(2-isopropyl-5-methylphenyl)-4-oxothiazolidin-2-ylidene)urea] | 50 to 100% | 50 to 100% |
| COC(C)c1ccc(C)cc1N1C(=O)CS/C1=N\C(=O)Nc1ccc(-c2ncn(-c3ccc(C(F)(F)F)cn3)n2)cc1F (stereo not drawn) [Compound J280, (Z)-1-(2-Fluoro-4-(1-(5-(trifluoromethyl)pyridin-2-yl)-1H-1,2,4-triazol-3-yl)phenyl)-3-(3-(2-(1-methoxyethyl)-5-methylphenyl)-4-oxothiazolidin-2-ylidene)urea] | 50 to 100% | 50 to 100% |
| Cc1ccc(COCC(F)(F)F)c(N2C(=O)CS/C2=N\C(=O)Nc2ccc(-c3ncn(-c4ccc(C(F)(F)F)cn4)n3)cc2F)c1 [Compound J281, (Z)-1-(2-Fluoro-4-(1-(5-(trifluoromethyl)pyridin-2-yl)-1H-1,2,4-triazol-3-yl)phenyl)-3-(3-(5-methyl-2-((2,2,2-trifluoroethoxy)methyl)phenyl)-4-oxothiazolidin-2-ylidene)urea] | 50 to 100% | 50 to 100% |
| CCCc1ccc(N(C)C)cc1N1C(=O)CS/C1=N\C(=O)Nc1ccc(-c2ncn(-c3ccc(C(F)(F)F)cn3)n2)cc1F [Compound J282, (Z)-1-(3-(5-(Dimethylamino)-2-propylphenyl)-4-oxothiazolidin-2-ylidene)-3-(2-fluoro-4-(1-(5-(trifluoromethyl)pyridin-2-yl)-1H-1,2,4-triazol-3-yl)phenyl)urea] | 50 to 100% | 50 to 100% |
